Test results as given in patent publication US20120316199A1, “COMPOSITIONS AND METHODS FOR TREATING, CONTROLLING, REDUCING, OR AMELIORATING INFLAMMATORY PAIN” (priority 2011, published 2012).
Values joined by “and” are separate entries in the source; they are usually repeats but may differ in a detail not shown here. Equal entries are not always repeated. “Also recorded” adds a separate entry of the source.

Columns and labels:
[1] = system: New Zealand White rabbits; test: Mortality/morbidity in New Zealand White rabbits, topical dosing four times daily; format: in vivo
Method: (§1) On Days 1-31, animals received daily topical doses of the appropriate test article into the right eye. Animals were dosed four times per day, with doses administered 2 hours apart. Doses were administered using a calibrated 50-μL pipette. The eyelids were held close for 10 seconds immediately following dosing. The time of each dose administration was recorded.
Animals determined to be moribund were euthanized with an intravenous injection of commercial euthanasia solution.

pupillary diameter = test: Pupillary diameter measurement, rabbit paracentesis model; format: in vivo, Rabbit (New Zealand); conditions: for Pupillary diameter T2: −5 min: 5 min before the first paracentesis; for Pupillary diameter T2: −5 min / Pupillary diameter T3: +115 min / Pupillary diameter T1: −180 min: raw data per eye; for Pupillary diameter T3: +115 min: 5 min before the second paracentesis; for Pupillary diameter T1: −180 min: basal; for Mean (mm) Δ(T3 − T1) of pupillary diameter: group mean, n=8 eyes
[2] = system: PGE2 in the aqueous humor; test: Prostaglandin E2 (PGE2) measurement in aqueous humor, rabbit paracentesis model; format: in vivo, Rabbit (New Zealand); conditions: for PGE2 level in aqueous humor, Mean: second paracentesis, group mean
Method: (§2) Each rabbit was placed in a restraint device and tagged with the alphanumeric code. The formulations were instilled (50 μl) into the conjunctival sac of both eyes 180, 120, 90 and 30 min before the first paracentesis; then 15, 30, 90 min after the first paracentesis. To perform the first paracentesis the animals were anaesthetized by intravenous injection of 5 mg/kg Zoletil® (Virbac; 2.5 mg/kg tiletamine HCl and 2.5 mg/kg zolazepam HCl) and one drop of local anesthetic (Novesina®, Novartis) was administered to the eye. Anterior chamber paracentesis was performed with a 26 G needle attached to a tuberculin syringe; the needle was introduced into the anterior chamber through the cornea, taking care not to damage the tissues. Two hours after the first paracentesis, the animals were sacrificed with 0.4 ml Tanax® (Intervet International B.V.) and the second paracentesis was performed. About 100 μl of aqueous humor were removed at the second paracentesis. Aqueous humor was immediately split in four aliquots and stored at −80° C. until analysis. Then both eyes were enucleated and the iris-ciliary body was carefully excised, placed in polypropylene tubes, and stored at −80° C. until analysis.
For the quantitative determination of PGE2 in the aqueous humor we used the PGE2 Immunoassay kit (R&D Systems; Cat. No. KGE004; Lot. No. 240010). Eleven microliters or 16 μl of aqueous humor were diluted to 110 μl or 160 μl with the calibrator diluent solution provided with the kit. One hundred microliters of samples and of standards were load into a 96-well plate and recorded in a plate layout. Samples were treated following the assay procedure described in the kit. A microplate reader (GDV, Italy; model DV 990 B/V6) set at 450 nm (wavelength correction at 540 nm) was used for making the calibration and analyzing the samples.
(§3) Pupillary diameter, PGE2, protein, PMN, and MPO were expressed as mean±SEM. Statistical analysis was performed using one way ANOVA followed by a Newman-Keuls post hoc test. Clinical score was expressed as % of eyes and the statistical analysis was performed using Kruskal-Wallis followed by a Dunn post hoc test. P<0.05 was considered statistically significant in both cases. Prism 4 software (GraphPad Software, Inc.) was used for the analysis and graphs.

[3] = system: protein concentration in the aqueous humor; test: Protein measurement in aqueous humor, rabbit paracentesis model; format: in vivo, Rabbit (New Zealand); conditions: for Protein level in aqueous humor, Mean / Protein level in aqueous humor, raw data: second paracentesis; for Protein level in aqueous humor, Mean: group mean; for Protein level in aqueous humor, raw data: per eye
Method: as §2
For protein concentration determination in the aqueous humor we used the Protein Quantification Kit (Fluka; Cat. No. 77371; Lot. No. 1303129). Five microliters of aqueous humor were diluted to 100 μl with water. Twenty microliters of samples and of standards were load into a 96-well plate and recorded in a plate layout. Samples were treated following the assay procedure described in the kit. A microplate reader (GDV, Italy; model DV 990 B/V6) set at 670 nm was used for making the calibration and analyzing the samples.
as §3

[4] = system: iris and conjunctival vessels, anterior chamber; test: Clinical evaluation by slit lamp (clinical score), rabbit paracentesis model; format: in vivo, Rabbit (New Zealand); parameters: key to Clinical Score −180 min / Clinical Score −5 min / Clinical Score +115 min: 0=normal; 1=discrete dilatation of iris and conjunctival vessels; 2=moderate dilatation of iris and conjunctival vessels; 3=intense iridal hyperemia with flare in the anterior chamber; 4=intense iridal hyperemia with flare in the anterior chamber and presence of fibrinous exudates; conditions: for Clinical Score −5 min: 5 min before the first paracentesis; for Clinical Score −5 min / Clinical Score +115 min / Clinical Score −180 min: raw data per eye; for Clinical Score +115 min: 5 min before the second paracentesis; for Clinical Score −180 min: basal
[5] = system: intraocular pressure (IOP); test: Intraocular pressure in New Zealand White rabbits, topical dosing four times daily; format: in vivo
Method: as §1
Intraocular pressure (“IOP”) was determined for both eyes of each animal on Days 3, 5, 10, 12, 16, 18, 22, 24, 26, 30, and 32. IOP was evaluated with a Medtronic Solan, Model 30 classic pneumatonometer. Proparacaine hydrochloride 0.5% (1 drop) was delivered to each eye prior to IOP measurement. IOP was measured on Monday. Wednesday, and Friday of each week. A two-point diurnal curve was established: IOP was recorded at 8 a.m. and 12 p.m. on Day 3, and at 8 a.m. and 2 p.m. on later days, with a ±1 hour range for each of these times. The time of the measurements was recorded.
Descriptive statistics were prepared for IOP data of each treatment group (left and right eyes separately) at each measurement interval. The statistics included the number of observations (“N”) mean, standard deviation (“STD”), and standard error (“SEM”). Statistical analyses were conducted on IOP results using Statistical Analysis Systems (SAS Institute. Inc., Cary, N.C. V8.0). Parameters were evaluated using analysis of variance/GLM Procedure followed by Tukey's Standardized Range Test (Tukey, 1985) for post hoc comparisons of group means. The level of significance was set at a probability of p<0.05 for all statistical procedures. Group IOP means were compared at each interval, with left and right eyes compared separately.

[6] = system: MPO activity in iris-ciliary body; test: Myeloperoxidase (MPO) activity in iris-ciliary body, rabbit paracentesis model; format: in vivo, Rabbit (New Zealand); conditions: for MPO activity in iris-ciliary body: individual samples collected after the second paracentesis; for MPO activity in iris-ciliary body, Mean: after the second paracentesis, group mean
Method: as §2
The activity of MPO was measured as previously described by Williams et al.[5] The iris-ciliary bodies were carefully dried, weighed and immersed in 1 ml of hexa-decyl-trimethyl-ammonium bromide solution. Then, the samples were sonicated for 10 sec on ice by a ultrasound homogenizer (HD 2070, Bandelin electronic), freeze-thawed three times, sonicated for 10 sec and centrifuged at 14,000 g for 10 min to remove cellular debris. An aliquot of the supernatant (40-200 μl) was diluted to 3 ml with the o-dianisidine 2HCl/H2O2 solution. The change in absorbance at 460 nm was continuously monitored for 5 min by a spectrophotometer (UV/Vis Spectrometer Lambda EZ 201; Perkin Elmer). The slope of the line (Δ/min) was determined for each sample and used to calculate the number of units of MPO in the tissue as follows:
Values were expressed as units of MPO/g of tissue.
as §3

rabbit eyes = test: Ophthalmic observations (slit lamp, McDonald Shadduck scores) in New Zealand White rabbits; format: in vivo; parameters: key to Ophthalmic Observation (Slit-Lamp): AN = Appeared normal
Method: Prior to placement on study, each animal underwent a pre-treatment ophthalmic examination (slit lamp and indirect ophthalmoscopy). Observations were scored according to the McDonald Shadduck system and recorded using a standardized data collection sheet.
as §1
Ophthalmic examinations (slit lamp) were performed prior to the first dosing on Days 5, 12, 22, 26, and 33. Ocular findings were scored according to the McDonald Shadduck system and recorded using a standardized data collection sheet.

[7] = Group A, 0.1% (0.05 mg/dose) 4 x daily, individual rabbits
[8] = 0.1% formulation, +115 min, N=8 eyes
[9] = 0.1% formulation, −5 min, N=8 eyes
[10] = Group A, 0.1%, treated right eye, individual animals

SMILES: C[C@@H]1C[C@H]2[C@@H]3CCC4=CC(=O)C=C[C@]4(C)[C@@]3(F)[C@@H](O)C[C@]2(C)[C@@]1(O)C(=O)CO [Dex, dexamethasone, reference compound]
- Mortality (rabbits that died or were euthanized between Days 11 and 33) ([1]; 0.05 mg/dose (0.1% dexamethasone suspension or 1 mg/g BOL-303242-X), right eye four times daily, Days 1-31): Six of ten
- Day of Death (day euthanized or found dead) [1, 7]: 25 (2×) and 27 (2×) and 23 and 13
- Recorded Notes on death [1, 7]: Euthanized. Very sick/poor health; left (untreated) eye; also recorded: Euthanized due to severe profuse hemorrhagic diarrhea; also recorded: Found dead. No rigor mortis present
- Mortality rate ([1]; dexamethasone suspension 0.05 mg/dose four times daily up to 31 days): 6 deaths per 10 rabbits
- Pupillary diameter T2: −5 min (pupillary diameter; 0.1% formulation): 5.5 mm and 6.5 mm and 6.0 mm and 7.0 mm and 7.5 mm
- Pupillary diameter T3: +115 min (pupillary diameter; 0.1% formulation): 5.5 mm and 6.0 mm and 4.5 mm and 5.0 mm and 6.5 mm
- Pupillary diameter T1: −180 min (pupillary diameter; 0.1% formulation): 6.0 mm and 7.0 mm and 5.5 mm and 6.5 mm
- Mean (mm) Δ(T3 − T1) of pupillary diameter (pupillary diameter; 0.1% formulation): −0.8 mm
- PGE2 level in aqueous humor, Mean ([2]; 0.1% formulation): 2.263 ng/mL
- Protein level in aqueous humor, Mean ([3]; 0.1% formulation): 33.457 mg/mL
- Protein level in aqueous humor, raw data ([3]; 0.1% formulation): 31.31 mg/mL and 31.81 mg/mL and 35.95 mg/mL and 37.15 mg/mL and 32.12 mg/mL and 32.40 mg/mL
- Clinical Score −5 min ([4]; 0.1% formulation): 0 and 1
- Clinical Score +115 min ([4]; 0.1% formulation): 1 and 3
- Percentage of eyes with clinical score 1 [4, 8]: 75%
- Percentage of eyes with clinical score 3 [4, 8]: 25%
- Clinical Score −180 min ([4]; 0.1% formulation): 0
- Percentage of eyes with clinical score 0 [4, 9]: 75%
- Percentage of eyes with clinical score 1 [4, 9]: 25%
- Percentage of eyes with clinical score 0 ([4]; 0.1% formulation, −180 min (basal), N=8 eyes): 100%
- Mean IOP of the group compared with corresponding eyes of other groups ([5]; 0.1% dexamethasone (Group A), on several days, one or both eyes, p<0.05): significantly higher
- Course of mean IOP after treatment began ([5]; left and right eyes, dexamethasone 0.1% (Group A), BOL-303242-X 10, 5, 1 mg/g (Groups B-D), four times daily): increased sharply
- MPO activity in iris-ciliary body ([6]; 0.1% Dex): 1.32 Unit/g
- MPO activity in iris-ciliary body, Mean ([6]; 0.1% formulation): 0.618 MPO Unit/g
- Conjunctival congestion Score (rabbit eyes; [10]): 1
- Ophthalmic Observation (Slit-Lamp) (rabbit eyes; [10]): AN
- Ophthalmic observation associated with unilateral topical instillation (rabbit eyes; four times daily up to 31 days, BOL-303242-X 0.05, 0.25, or 0.5 mg/dose, dexamethasone 0.05 mg/dose): sporadic mild conjunctival congestion

SMILES: CC(C(=O)O)c1ccc(-c2ccccc2)c(F)c1 (stereo not shown) [F, flurbiprofen]
- Pupillary diameter T2: −5 min (pupillary diameter; 0.03% formulation): 6.0 mm and 6.5 mm and 7.0 mm and 5.5 mm
- Pupillary diameter T3: +115 min (pupillary diameter; 0.03% formulation): 4.0 mm and 3.5 mm and 5.5 mm and 5.0 mm and 4.5 mm and 6.0 mm
- Pupillary diameter T1: −180 min (pupillary diameter; 0.03% formulation): 5.0 mm and 7.0 mm and 6.0 mm and 5.5 mm
- Mean (mm) Δ(T3 − T1) of pupillary diameter (pupillary diameter; 0.03% formulation): −0.9 mm
- PGE2 in aqueous humor, statistical significance versus CTR ([2]; 0.03% formulation, p<0.05): statistically significant versus CTR
- PGE2 level in aqueous humor, Mean ([2]; 0.03% formulation): 1.189 ng/mL
- Protein in aqueous humor, statistical significance vs CTR ([3]; 0.03% formulation, p<0.001): statistical significance
- Protein level in aqueous humor, Mean ([3]; 0.03% formulation): 20.910 mg/mL
- Protein level in aqueous humor, raw data ([3]; 0.03% formulation): 20.78 mg/mL and 28.80 mg/mL and 23.41 mg/mL and 20.21 mg/mL and 17.53 mg/mL and 15.12 mg/mL and 20.52 mg/mL
- Clinical Score −5 min ([4]; 0.03% formulation): 0
- Clinical Score +115 min ([4]; 0.03% formulation): 2
- Percentage of eyes with clinical score 2 ([4]; 0.03% formulation, +115 min, N=8 eyes): 100%
- Clinical Score −180 min ([4]; 0.03% formulation): 0
- Percentage of eyes with clinical score 0 ([4]; 0.03% formulation, −5 min, N=8 eyes): 100%
- Percentage of eyes with clinical score 0 ([4]; 0.03% formulation, −180 min (basal), N=8 eyes): 100%
- MPO activity in iris-ciliary body ([6]; 0.03% F): 1.27 Unit/g
- MPO activity in iris-ciliary body, Mean ([6]; 0.03% formulation): 0.906 MPO Unit/g
